The test system of data set [1] is ZR-75-1 cells. Nature of the data set: Effect on ZR-75-1 cell proliferation (11 days, DNA content). Type of data set: cell-based, human. The following applies: 50 μM. The protocol:
(§1) For growth studies, ZR-75-1 cells were cultured in MEZR medium or in phenol red-free RPMI 1640 supplemented with 2 mM L-glutamine, 1 mM sodium pyruvate, 15 mM Hepes, antibiotics, 1 nM 17β-estradiol, 0.5 μg of bovine insulin per ml and 5% (v/v) charcoal-treated fetal bovine serum (SD medium), as indicated in the text. When polyamines or polyamine analogs were added to serum-containing media, 1 mM aminoguanidine was added to inhibit bovine serum amine oxidase (BSAO) activity (Morgan, D. M. L. 1989, in The Physiology of Polyamines (Bachrach, U., and Heimer, Y. M. eds) Vol. I, pp. 203-229, CRC Press, Boca Raton). The effect of the transport inhibitors on cell growth was measured by incubating ZR-75-1 cells for 11 days in medium supplemented with antagonist, polyamines and/or 1 mM DFMO as indicated, followed by colorimetric determination of DNA content with 3,4-diaminobenzoic acid (Simard, J., Dauvois, S., Haagensen, D. E., Lėvesque C., Mėrand, Y. and Labriė, F. 1990. Endocrinology 126: 3223-3231). Medium was changed every other day in these experiments because of the slow reaction of the compound with an unknown component present in the IMEM and RPMI 1640 medium formulation.
The biocompatibility of DESC, MESC, and DEASC was thus evaluated during a long-term (11-day) incubation with ZR-75-1 cells grown in RPMI 1640 containing 10% (v/v) FBS in the absence and presence of 1 mM aminoguanidine. […] Weak growth inhibition caused by the mixed MESC-cysteamine disulfide, however, apparently involved degradation by a copper amine oxidase.

Data set [2] in a line: Stability in buffered aqueous solution. Type of data set: physicochemical. Conditions: buffered at pH=7.0.
For data set [3], the system named is polyamine transporter. The experiment in a line: Inhibition of [3H]putrescine uptake in ZR-75-1 cells. The class given is cell-based, human. The following applies: for Ki: ZR-75-1 cells. The protocol: (§2) The rate of putrescine and spermidine transport was determined in ZR-75-1 cells incubated in serum-free RPMI 1640 medium as described (Lessard, M., Zhao, C., Singh, S. M. and Poulin, R. 1995. J. Biol. Chem. 270: 1685-1694), using [^3H]putrescine (30 Ci/mol) and [^3H]spermidine (20 Ci/mol), respectively as substrates for a 20 minute-assay period. Spermine uptake was similarly determined, using 1 μM [^14C]spermine (32 Ci/mol) as substrate. Uptake activity was expressed per amount of DNA as fluorometrically determined using 3,4-diaminobenzoic acid (Simard, J., Dauvois, S., Haagensen, D. E., Lėvesque, C., Mėrand, Y. and Labrie, F. 1990. Endocrinology, 126: 3223-3231). For the determination of spermidine uptake activity in CHO-K1 cells, 80% confluent cell monolayers were rinsed twice with PBS and incubated for 20 minutes at 37° C. in 400 μl of buffer A (20 mM Tris-HCl, pH 7.4; 0.42 mM CaCl2; 0.41 mM MgSO4; 103 mM NaCl; 5.7 mM KCl; 1.1 mM D-glucose) containing 5 μM [^3H]spermidine (20 Ci/mol). Cell cultures were then washed twice with 1 ml PBS containing 5.7 mM sym-norspermidine. Cells were then lysed with 200-μl aliquot of 1 N NaOH and incubated for 30 minutes at 60° C. After neutralization with 200 μl of 1 N HCl, radioactivity was determined from a 250-μl of the cell lysate by scintillation counting. Uptake activity was expressed per amount of total cellular protein as determined by the method of Bradford (Bradford, M. M. 1976. Anal. Biochem. 72: 248-254). Non-specific binding of radioactive substrate was similarly determined in parallel for both cell lines after a 15 second-incubation with 400 μl of ice-cold uptake solution.
(§3) Kinetic analysis of polyamine transport was performed by determining uptake activity in the presence of a 3 μM [^3H]putrescine or 1 μM [^3H]spermidine plus increasing concentrations of nonradioactive substrate. K[…] Ki and Vmax values were then estimated by Lineweaver-Burke analysis. For competitive inhibitors, Ki values were also estimated by measuring uptake activity in the presence of logarithmically increasing concentrations of antagonist, and using the Cheng-Prusoff equation (Cheng, Y.-C. and Prusoff, W. H. 1973. Biochem. Pharmacol. 22: 3099-3108) by iterative curve fitting for a sigmoidal curve. For mixed competitive/noncompetitive inhibition, two methods were used to calculate kinetic constants. First, the equation [drawing 2] where v, s, and i are the transport velocity, substrate concentration and inhibitor concentration respectively, was used to calculate the inhibition constants for inhibitor/carrier complex formation (Ki) and carrier/inhibitor/substrate complex formation (Ki′) (Dixon, M. and Webb, E. C. 1976. Enzymes, 3rd Ed., Academic Press, San Diego, Calif.). Alternatively, the value of Ki for a mixed competitor/non-competitor was estimated from the intersect of equations v^−1 vs i at two different substrate concentrations (Dixon, M. and Webb, E. C. 1976. Enzymes, 3rd Ed., Academic Press, San Diego, Calif.). Intracellular Accumulation
(§4) In order to evaluate the effectiveness of dimeric triamines as polyamine transport inhibitors, we synthesized N,N′-bis(3-aminopropyl),N,N′-bis(4-aminobutyl)cystamine or BABAC (structure 1, FIG. 25; FIG. 31), and its thiol form N-(3-aminopropyl),N-(4-aminobutyl)cysteamine or AAC (FIG. 31) according to Scheme 4 described above (FIG. 30), using spermidine as a precursor polyamine. The ability of BABAC and AAC to inhibit the intracellular uptake of radio-labeled putrescine and spermidine in the ZR-75-1 human breast cancer cell line was then determined according to standard published procedures (Lessard, et al. and Poulin, et al.) Briefly, ZR-75-1 cells were grown for four days in twenty-four well plates in RPMI 1640 medium supplemented with 10% fetal bovine serum.

The subject of data set [4] is polyamine transporter. The experiment in a line: Inhibition of [14C]spermine uptake in ZR-75-1 cells. Type of data set: cell-based, human. Conditions: for Ki: this work, read-out: Km or Ki, spermine transport. As for the experimental part: as §2, with “Spermine uptake was similarly determined, using 1 μM [^14C]spermine (32 Ci/mol) as substrate.” left out
as §3, §4

The target in data set [5] is polyamine transporter. The following applies: ZR-75-1 cells; data annotated a (Lessard et al. 1995); read-out: Km or Ki, putrescine transport; cited from earlier work.
Data set [6] addresses polyamine transporter. Conditions: ZR-75-1 cells; data annotated a (Lessard et al. 1995); read-out: Km or Ki, spermidine transport; cited from earlier work.
The subject of data set [7] is ZR-75-1 cells. The experiment in a line: Reversal of DFMO-induced growth inhibition by exogenous spermidine. Type of data set: cell-based, human. Conditions: 1 mM DFMO. As for the experimental part:
as §1, with “3223-3231).” for “3223-3231). Medium was changed every other day in these experiments because of the slow reaction of the compound with an unknown component present in the IMEM and RPMI 1640 medium formulation.”
This possibility was assessed by comparing the ability of DESC to prevent the reversal of DFMO-induced growth inhibition by increasing concentrations of exogenous spermidine.

Data set [8] deals with polyamine transporter. Conditions: ZR-75-1 cells; data annotated a (Lessard et al. 1995); read-out: Km or Ki, spermine transport; cited from earlier work.
The conditions of data set [9]: MESC: amino group neighboring the amide linkage; cited from earlier work.
The test system of data set [10] is polyamine transporter. Nature of the data set: Inhibition of [3H]spermidine uptake in ZR-75-1 cells. Conditions: FIG. 32, 20 μM and 3 μM substrate, respectively, read-out: Apparent Ki, spermidine uptake. Type of data set: cell-based, human. The protocol:
as §2
as §3, with “Alternatively, the value of Ki for a mixed competitor/non-competitor was estimated from the intersect of equations v^−1 vs i at two different substrate concentrations (Dixon, M. and Webb, E. C. 1976. Enzymes, 3rd Ed., Academic Press, San Diego, Calif.). Intracellular Accumulation” left out
as §4

The subject of data set [11] is ZR-75-1 cells. The experiment in a line: Intracellular accumulation of inhibitor and polyamine contents (HPLC) in ZR-75-1 cells. Type of data set: cell-based, human. Conditions: ZR-75-1 cells, 6-hour incubation, HPLC of cell extracts.
In data set [12] the test system is polyamine transporter. Nature of the data set: Inhibition of [14C]spermine uptake in ZR-75-1 cells. The class given is cell-based, human. Conditions: 3μM substrate (Example 11), read-out: Ki, [14C]spermine transport.
The next data set can be described thus: in vitro. The following applies: human, ZR-75-1 cells.

Like-named read-outs stand apart in the source and are kept apart here. A value given as a limit tells only on which side of the number the result lay.

One may read the Km as the substrate concentration at which the rate is half of its maximum. One may read the IC50 as the concentration that inhibits the measured activity by half.

Source text for in vitro: FIG. 34 represents the relative cytotoxicity of sym-norspermidine (NSpd), BABAC and TADAX in ZR-75-1 human breast cancer cells. Data are the mean±SD of triplicate determinations from a representative experiment.

Turning to `NCCCNCCCC(NCCCN)C(=O)NCCSSCCN` (stereo not shown) [DEASC, N-[2,2′-dithio(ethyl,1-aminoethyl)]spermine-5-carboxamide], in the data set on ZR-75-1 cells [1] (completely prevented by aminoguanidine), the “Inhibition of cell proliferation” value worked out at 20%. The “Stability in aqueous solutions” value in data set [2] is listed as “stable for months”. Also, the “Mode of inhibition of [3H]putrescine uptake” value in the data set on polyamine transporter [3] (Lineweaver-Burke, DESC up to 100 μM, MESC up to 200 μM) is “mixed competitive/non-competitive type”. Besides, the Ki in the data set with polyamine transporter [3] (mixed competitive/non-competitive model, read-out: Ki′ (carrier/inhibitor/putrescine complex formation)) came out at 4100 nM; in the data set on polyamine transporter [3] (this work, DEASC: Ki of mixed competitive/non-competitive model, read-out: Ki, putrescine transport), 5300 ± 600 nM; in the data set with polyamine transporter [4], 16000 ± 3000 nM. The “Ki for [14C]spermine transport, fold higher than that of DESC” value in the data set on polyamine transporter [4] (FIG. 2) is reported as “about 5 fold”.
For `NCCCCN` [Putrescine, 1,4-butane-diamine], the figures for the Ki at polyamine transporter [5], at polyamine transporter [6] and in the data set with polyamine transporter [4] were 3700 ± 400 nM, 125000 ± 29000 nM and 230 ± 130 nM, respectively.
Take `NCCCCNCCCN` [Spermidine, N-3[aminopropyl]-1,4-diaminobutane]: the “Spermidine concentration completely reversing DFMO-induced growth inhibition” value with ZR-75-1 cells [7] (11 days) was 0.3 µM. In addition, the activity at 0.1 µM in the data set on ZR-75-1 cells [7] (Homo sapiens, ZR-75-1, 0.1 μM spermidine, read-out: Growth of DFMO-treated cells restored, % of control value) turned out to be 78%. Further, the results for the Ki on polyamine transporter [5], at polyamine transporter [8] and on polyamine transporter [6] were 230 ± 50 nM, 370 ± 90 nM and 490 ± 150 nM, respectively.
For `NCCCNCCCCNCCCN` [Spermine, N,N′-bis-[3-aminopropyl]-1,4-butanediamine, reference compound], in data set [9], the “pKa of secondary amino group of the spermine head” value was 8.9-9.8. Also, the “Effect on cell growth” value with ZR-75-1 cells [1] (with or without 1 mM aminoguanidine) is given as “acutely cytotoxic”. The Ki with polyamine transporter [10] was 400 nM; at polyamine transporter [5], 330 ± 20 nM; in the data set with polyamine transporter [3] (FIG. 32, 20 μM and 3 μM substrate, respectively, read-out: Apparent Ki, putrescine uptake), 74.5 nM; in the data set on polyamine transporter [4], 200 ± 60 nM. Moreover, the Km in the data set on polyamine transporter [4] (3μM substrate (Example 11), read-out: Apparent Km, spermine transport) was 0.6 µM.
On to `NCCCN(CCCN)Cc1ccc(CN(CCCN)CCCN)cc1` [TADAX, N,N,N′,N′-tetrakis(3-aminopropyl)-p-xylylenediamine], for which the “Accumulation of the compound in cells” value with ZR-75-1 cells [11] is reported as “no detectable accumulation”. For the same molecule, the Ki with polyamine transporter [12] came out at 1500 nM. This molecule also returned an IC50 in the data set “in vitro” of more than 500000 nM.

The values are drawn from patent publication US6949679B1, “Polyamine transport inhibitors” (Universite Laval, priority 1998, dated 2005).
